Source: US20050101595A1, “N-containing cycloalkyl-substituted amino-thiazole derivatives and pharmaceutical compositions for inhibiting cell proliferation and methods for their use” (PFIZER INC., priority 2003, published 2005)
Where a name gives a salt, the structure may show the parent alone.

Experiments:
[1] = target: CDK2/Cyclin A (Homo sapiens, UniProt P24941); test: Inhibition of CDK2/Cyclin A Retinoblastoma Kinase Activity; assay type: biochemical; details: for inhibition at 0.05 µM: read-out: % inhibition of CDK2 (@ 0.05 μM), compound at 0.05 μM; for Ki: apparent Ki, CDK2/proteolyzed cyclin A, Rb fragment substrate, 25 μM ATP
Description: Cyclin-dependent kinase activity was measured by quantifying the enzyme-catalyzed, time-dependent incorporation of radioactive phosphate from [^32P]ATP or [^33P]ATP into a protein substrate. Unless noted otherwise, assays were performed in 96-well plates in a total volume of 50 μL, in the presence of 10 mM HEPES (N-[2-hydroxyethyl]piperazine-N′-[2-ethanesulfonic acid]) (pH 7.4), 10 mM MgCl2, 25 μM adenosine triphosphate (ATP), 1 mg/mL ovalbumin, 5 μg/mL leupeptin, 1 mM dithiothreitol, 10 mM β-glycerophosphate, 0.1 mM sodium vanadate, 1 mM sodium fluoride, 2.5 mM ethylene glycol-bis(β-aminoethyl ether)-N,N,N′N′-tetraacetic acid (EGTA), 2% (v/v) dimethylsulfoxide, and 0.03-0.4 μCi [^32/33P]ATP per reaction. Reactions were initiated with enzyme, incubated at 30° C., and terminated after 20 minutes by the addition of ethylenediaminetetraacetic acid (EDTA) to 250 mM. The phosphorylated substrate was then captured on a nitrocellulose or phosphocellulose membrane using a 96-well filtration manifold, and unincorporated radioactivity was removed by repeated washing with 0.85% phosphoric acid. Radioactivity was quantified by exposing the dried membranes to a phosphorimager.
Inhibition was measured relative to control wells that contained all reaction components including 2% (v/v) DMSO but no compound, after subtraction of background radioactivity measured in the absence of enzyme. Apparent Ki values of discrete compounds were measured by assaying enzyme activity in the presence of different inhibitor compound concentrations and subtracting the background radioactivity measured in the absence of enzyme. The kinetic parameters (kcat, Km for ATP) were measured for each enzyme under the usual assay conditions by determining the dependence of initial rates on ATP concentration. Inhibition data were fit to an equation for competitive inhibition using Kaleidagraph (Synergy Software), or were fit to an equation for competitive tight-binding inhibition using the software KineTic (BioKin, Ltd.).
Inhibition of CDK2/Cyclin A Retinoblastoma Kinase Activity:
CDK2 was purified using published methodology (Rosenblatt et al., “Purification and Crystallization of Human Cyclin-dependent Kinase 2,” J. Mol. Biol., vol. 230, 1993, pp. 1317-1319) from insect cells that had been infected with a baculovirus expression vector. […] A complex of CDK2 and proteolyzed cyclin A was prepared and purified by gel filtration. The substrate for this assay was the same Rb substrate fragment used for the CDK4 assays, and the methodology of the CDK2/delta cyclin A and the CDK4/delta cyclin D3 assays was essentially the same, except that CDK2 was present at 10 nM or 19 nM. The duration of the assay was 60 or 75 minutes, during which the time-dependence of product formation was linear and initial rate conditions were met. And, the percent inhibitions of the compounds of Example O through Example R were calculated as described above and shown in Table 2.

[2] = test system: HCT-116 cell line; test: Inhibition of cell growth, tetrazolium salt (MTT) assay; assay type: cell-based; details: Homo sapiens; for IC50: HCT-116, 120 h, first HCT-116 column (c4), three to five days, read-out: HCT-116 IC50; for IC50 / inhibition at 0.175 µM: MTT; for inhibition at 0.175 µM: HCT-116, HCT-116 cells, compound at 0.175 uM; for inhibition at 0.25 µM: HCT-116, HCT116 cells, compound at 250 nM, read-out: % Inhibition HCT116 @ 250 nM
Summary of the method: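 Growth inhibition by MTT reduction at 540 nm (0.2 mg/mL, 4 h at 37° C, formazan dissolved in DMSO), normalized to cells given only 0.5% v/v DMSO. HCT-116 cultures in McCoy's 5A were dosed 4 h post-plating and kept three to five days at 37° C, 5% CO2.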

| inhibition at 0.05 µM [1] [%] | Compound | inhibition at 0.175 µM [2] [%] | also measured |
| --- | --- | --- | --- |
|  | CC(C)(C)NCCC(=O)N1CCC(Nc2nc(N)c(C(=O)c3c(F)cccc3F)s2)CC1 [Example U4, Acetic Acid Salt] |  | inhibition at 0.5 µM ([1]; @0.5 μM, printed in the CDK2 Ki column): 40%; IC50 [2]: > 5000 nM |
| 80 | Nc1nc(NC2CCN(S(=O)(=O)CCCNCCC3CCCN3)CC2)sc1C(=O)c1c(F)cccc1F (centres unmarked) [Example V1] | 7 |  |
| 59 | CC(=O)NCCNCCCS(=O)(=O)N1CCC(Nc2nc(N)c(C(=O)c3c(F)cccc3F)s2)CC1 [Example V19] | 13 |  |
| 85 | Nc1nc(NC2CCN(S(=O)(=O)CCCNCCC3CCOCC3)CC2)sc1C(=O)c1c(F)cccc1F [Example V164] | 0 |  |
| 79 | Nc1nc(NC2CCN(S(=O)(=O)CCCNCCN3CCCCC3)CC2)sc1C(=O)c1c(F)cccc1F [Example V5] | 7 |  |
| 83 | Nc1nc(NC2CCN(S(=O)(=O)CCCNC3CCCNC3=O)CC2)sc1C(=O)c1c(F)cccc1F (centres unmarked) [Example V162] | 9 |  |
| 81 | N#CCCNCCCS(=O)(=O)N1CCC(Nc2nc(N)c(C(=O)c3c(F)cccc3F)s2)CC1 [Example V92] | 9 |  |
|  | CN(CCCS(=O)(=O)N1CCC(Nc2nc(N)c(C(=O)c3c(F)cccc3F)s2)CC1)Cc1ccccc1 [Example V181, (4-Amino-2-{[1-({3-[benzyl(methyl)amino]propyl}sulfonyl)-4-piperidinyl]amino}-1,3-thiazol-5-yl)(2,6-difluorophenyl)methanone.] |  | Ki [1]: 6.5 nM; IC50 [2]: 60 nM |
| 74 | Nc1nc(NC2CCN(S(=O)(=O)CCCNCCOCCO)CC2)sc1C(=O)c1c(F)cccc1F [Example V11] | 11 |  |
| 92 | Nc1nc(NC2CCN(S(=O)(=O)CCCNCc3ccc(F)cc3)CC2)sc1C(=O)c1c(F)cccc1F [Example V52] | 65 |  |
| 84 | Nc1nc(NC2CCN(S(=O)(=O)CCCN3CCCCC3)CC2)sc1C(=O)c1c(F)cccc1F [Example V55] | 56 |  |
| 79 | CCN(CCO)CCCS(=O)(=O)N1CCC(Nc2nc(N)c(C(=O)c3c(F)cccc3F)s2)CC1 [Example V51] | 0 |  |
| 84 | CC(CN(C)C)NCCCS(=O)(=O)N1CCC(Nc2nc(N)c(C(=O)c3c(F)cccc3F)s2)CC1 (centres unmarked) [Example V126] | 6 |  |
| 78 | CN(C)CCCN(C)CCCS(=O)(=O)N1CCC(Nc2nc(N)c(C(=O)c3c(F)cccc3F)s2)CC1 [Example V32] | 11 |  |
| 76 | CCN(CC)CCN(C)CCCS(=O)(=O)N1CCC(Nc2nc(N)c(C(=O)c3c(F)cccc3F)s2)CC1 [Example V33] | 16 |  |
| 93 | Nc1nc(NC2CCN(S(=O)(=O)CCCNCc3ccccc3)CC2)sc1C(=O)c1c(F)cccc1F [Example V12] | 69 |  |
| 79 | Nc1ncccc1CNCCCS(=O)(=O)N1CCC(Nc2nc(N)c(C(=O)c3c(F)cccc3F)s2)CC1 [Example V151] | 0 |  |
| 87 | Nc1nc(NC2CCN(S(=O)(=O)CCCNCC3(O)CCCCC3)CC2)sc1C(=O)c1c(F)cccc1F [Example V144] | 0 |  |
| 92 | Nc1nc(NC2CCN(S(=O)(=O)CCCNCc3ccccc3F)CC2)sc1C(=O)c1c(F)cccc1F [Example V26] | 76 |  |
| 78 | CC(O)CCNCCCS(=O)(=O)N1CCC(Nc2nc(N)c(C(=O)c3c(F)cccc3F)s2)CC1 (centres unmarked) [Example V81] | 5 |  |

| inhibition at 0.05 µM [1] [%] | Compound | inhibition at 0.175 µM [2] [%] | also measured |
| --- | --- | --- | --- |
| 87 | Nc1nc(NC2CCN(S(=O)(=O)CCCNCCSCCO)CC2)sc1C(=O)c1c(F)cccc1F [Example V125] | 5 |  |
|  | Cc1ccccc1CNCCCS(=O)(=O)N1CCC(Nc2nc(N)c(C(=O)c3c(F)cccc3F)s2)CC1 [Example V184, (4-Amino-2-{[1-({3-[(2-methylbenzyl)amino]propyl}sulfonyl)-4-piperidinyl]amino}-1,3-thiazol-5-yl)(2,6-difluorophenyl)methanone.] |  | Ki [1]: 3.6 nM; IC50 [2]: 60 nM |
| 88 | CN(CCCS(=O)(=O)N1CCC(Nc2nc(N)c(C(=O)c3c(F)cccc3F)s2)CC1)Cc1ccco1 [Example V82] | 60 |  |
| 87 | CSCCCNCCCS(=O)(=O)N1CCC(Nc2nc(N)c(C(=O)c3c(F)cccc3F)s2)CC1 [Example V127] | 13 |  |
|  | Nc1nc(NC2CCN(S(=O)(=O)CCCNC3CCCCC3)CC2)sc1C(=O)c1c(F)cccc1F [Example K55, {4-Amino-2-[1-(3-cyclohexylamino-propane-1-sulfonyl)-piperidin-4-ylamino]-thiazol-5-yl}-(2,6-difluoro-phenyl)-methanone] |  | Ki [1]: 8 nM; IC50 [2]: 680 nM |
| 79 | CCN(CCCCO)CCCS(=O)(=O)N1CCC(Nc2nc(N)c(C(=O)c3c(F)cccc3F)s2)CC1 [Example V108] | 2 |  |
| 82 | Nc1nc(NC2CCN(S(=O)(=O)CCCN[C@H]3CC[C@@H](CO)CC3)CC2)sc1C(=O)c1c(F)cccc1F [Example V170] | 14 |  |
| 81 | CC(=O)N1CCN(CCCS(=O)(=O)N2CCC(Nc3nc(N)c(C(=O)c4c(F)cccc4F)s3)CC2)CC1 [Example V29] | 0 |  |
| 81 | Nc1nc(NC2CCN(S(=O)(=O)CCCNCCO)CC2)sc1C(=O)c1c(F)cccc1F [Example V91] | 13 |  |
| 83 | Nc1nc(NC2CCN(S(=O)(=O)CCCN3CCCC(F)(F)C3)CC2)sc1C(=O)c1c(F)cccc1F [Example V167] | 0 |  |
| 85 | Nc1ccc(CNCCCS(=O)(=O)N2CCC(Nc3nc(N)c(C(=O)c4c(F)cccc4F)s3)CC2)cc1 [Example V47] | 13 |  |
|  | Nc1nc(NC2CCN(S(=O)(=O)CCNCc3cccc(F)c3F)CC2)sc1C(=O)c1c(F)cccc1F [Example S158] |  | inhibition at 0.25 µM [2]: 73% |
|  | Nc1nc(NC2CCN(S(=O)(=O)CCNCC3CCCCC3)CC2)sc1C(=O)c1c(F)cccc1F [Example S67] |  | inhibition at 0.25 µM [2]: 40% |
|  | Nc1nc(NC2CCN(S(=O)(=O)CCNCC(=O)NO)CC2)sc1C(=O)c1c(F)cccc1F [Example S168] |  | inhibition at 0.25 µM [2]: 16% |
|  | Nc1nc(NC2CCN(S(=O)(=O)CCNCc3ccc(F)cc3)CC2)sc1C(=O)c1c(F)cccc1F [Example S102] |  | inhibition at 0.25 µM [2]: 57% |
|  | CCCCN(CCO)CCS(=O)(=O)N1CCC(Nc2nc(N)c(C(=O)c3c(F)cccc3F)s2)CC1 [Example S36] |  | inhibition at 0.25 µM [2]: 17% |
|  | C=C(C)CNCCS(=O)(=O)N1CCC(Nc2nc(N)c(C(=O)c3c(F)cccc3F)s2)CC1 [Example S151] |  | inhibition at 0.25 µM [2]: 50% |
|  | Nc1nc(NC2CCN(S(=O)(=O)CCNCCO)CC2)sc1C(=O)c1c(F)cccc1F [Example S115] |  | inhibition at 0.25 µM [2]: 68% |
|  | COC(=O)CNCCS(=O)(=O)N1CCC(Nc2nc(N)c(C(=O)c3c(F)cccc3F)s2)CC1 [Example S129] |  | inhibition at 0.25 µM [2]: 25% |
|  | NC(=O)C1CCCN(CCS(=O)(=O)N2CCC(Nc3nc(N)c(C(=O)c4c(F)cccc4F)s3)CC2)C1 (centres unmarked) [Example S12] |  | inhibition at 0.25 µM [2]: 19% |
